From PubChem BioAssay (NCI)
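Five compound concentrations were applied to cells in 96-well plates for 48 hours; endpoints were derived by simple linear interpolation of the resulting dose-response curve. At the TGI there is no net growth.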

Legend:
Test in all cases: NCI anticancer screen, dose series, 48 h
SK-OV-3 ovarian = system: SK-OV-3 ovarian
NCI-H460 lung = system: NCI-H460 lung
OVCAR-8 ovarian = system: OVCAR-8 ovarian
BT-549 breast = system: BT-549 breast
MOLT-4 leukemia = system: MOLT-4 leukemia
LOX IMVI melanoma = system: LOX IMVI melanoma
HCT-116 colon = system: HCT-116 colon
M14 melanoma = system: M14 melanoma
SNB-75 CNS = system: SNB-75 CNS
MDA-MB-231 breast = system: MDA-MB-231 breast
RPMI-8226 leukemia = system: RPMI-8226 leukemia
OVCAR-3 ovarian = system: OVCAR-3 ovarian
SF-539 CNS = system: SF-539 CNS
K-562 leukemia = system: K-562 leukemia
MCF7 breast = system: MCF7 breast
HOP-92 NSCLC = system: HOP-92 NSCLC
UACC-257 melanoma = system: UACC-257 melanoma
NCI-H522 lung = system: NCI-H522 lung
SNB-19 CNS = system: SNB-19 CNS
NCI/ADR-RES ovarian = system: NCI/ADR-RES ovarian
HCT-15 colon = system: HCT-15 colon
SW-620 colon = system: SW-620 colon
CCRF-CEM leukemia = system: CCRF-CEM leukemia
HOP-62 NSCLC = system: HOP-62 NSCLC
EKVX NSCLC = system: EKVX NSCLC
HT29 colon = system: HT29 colon
RXF 393 renal = system: RXF 393 renal
U251 CNS = system: U251 CNS
T-47D breast = system: T-47D breast
SF-295 CNS = system: SF-295 CNS
MDA-N = system: MDA-N
SN12C renal = system: SN12C renal
A549 NSCLC = system: A549 NSCLC
SR leukemia = system: SR leukemia
SK-MEL-5 melanoma = system: SK-MEL-5 melanoma
KM12 colon = system: KM12 colon
IGROV1 ovarian = system: IGROV1 ovarian
HCC-2998 colon = system: HCC-2998 colon
A498 renal = system: A498 renal
TK-10 renal = system: TK-10 renal
ACHN renal = system: ACHN renal
SK-MEL-2 melanoma = system: SK-MEL-2 melanoma
DU-145 prostate = system: DU-145 prostate
786-0 renal = system: 786-0 renal
SF-268 CNS = system: SF-268 CNS
MDA-MB-435 = system: MDA-MB-435
MALME-3M melanoma = system: MALME-3M melanoma
OVCAR-5 ovarian = system: OVCAR-5 ovarian
CAKI-1 renal = system: CAKI-1 renal
UACC-62 melanoma = system: UACC-62 melanoma
HL-60(TB) leukemia = system: HL-60(TB) leukemia
SK-MEL-28 melanoma = system: SK-MEL-28 melanoma
UO-31 renal = system: UO-31 renal
COLO 205 colon = system: COLO 205 colon
NCI-H23 lung = system: NCI-H23 lung
PC-3 prostate = system: PC-3 prostate
HS 578T breast = system: HS 578T breast
NCI-H226 lung = system: NCI-H226 lung
OVCAR-4 ovarian = system: OVCAR-4 ovarian

COc1ccc2[nH]c(Cl)c(/C=C3/C(=O)N(c4ccccc4)c4ccccc43)c2c1 was tested, and the TGI (SK-OV-3 ovarian) was 10.8 µM, the TGI (NCI-H460 lung) was 16.3 µM and the TGI (OVCAR-8 ovarian) was 28.8 µM. For the same compound, the TGI (BT-549 breast) was 11.3 µM, the TGI (MOLT-4 leukemia) was over 100 µM and the TGI (LOX IMVI melanoma) was 14.3 µM. The TGI (HCT-116 colon) was 18.6 µM, the TGI (M14 melanoma) was 12.9 µM and the TGI (SNB-75 CNS) was 49.1 µM. It also gave a TGI (MDA-MB-231 breast) of 65.3 µM, a TGI (RPMI-8226 leukemia) of 20.4 µM and a TGI (OVCAR-3 ovarian) of 7.71 µM. It also gave a TGI (SF-539 CNS) of 6.63 µM, a TGI (K-562 leukemia) of 26.4 µM and a TGI (MCF7 breast) of over 100 µM. It also gave a TGI (HOP-92 NSCLC) of over 100 µM, a TGI (UACC-257 melanoma) of 24.3 µM and a TGI (NCI-H522 lung) of 17.9 µM. For the same compound, the TGI (SNB-19 CNS) was 88.5 µM, the TGI (NCI/ADR-RES ovarian) was 6.45 µM and the TGI (HCT-15 colon) was 13 µM. The TGI (SW-620 colon) was 24.6 µM, the TGI (CCRF-CEM leukemia) was 63.4 µM and the TGI (HOP-62 NSCLC) was 23.4 µM. For the same compound, the TGI (EKVX NSCLC) was 69.5 µM, the TGI (HT29 colon) was 45.8 µM and the TGI (RXF 393 renal) was 47.3 µM. For the same compound, the TGI (U251 CNS) was 30.7 µM, the TGI (T-47D breast) was 21.4 µM and the TGI (SF-295 CNS) was 7.33 µM. For the same compound, the TGI (MDA-N) was 3.53 µM, the TGI (SN12C renal) was 18.9 µM and the TGI (A549 NSCLC) was over 100 µM. For the same compound, the TGI (SR leukemia) was 11.1 µM, the TGI (SK-MEL-5 melanoma) was 5.97 µM and the TGI (KM12 colon) was over 100 µM. The TGI (IGROV1 ovarian) was over 100 µM, the TGI (HCC-2998 colon) was 17.6 µM and the TGI (A498 renal) was over 100 µM. The TGI (TK-10 renal) was 36.5 µM, the TGI (ACHN renal) was over 100 µM and the TGI (SK-MEL-2 melanoma) was 10.9 µM. It also gave a TGI (DU-145 prostate) of 76.4 µM, a TGI (786-0 renal) of 20.9 µM and a TGI (SF-268 CNS) of 23.3 µM. For the same compound, the TGI (MDA-MB-435) was 4.33 µM, the TGI (MALME-3M melanoma) was 36.2 µM and the TGI (OVCAR-5 ovarian) was 94.8 µM. The TGI (CAKI-1 renal) was over 100 µM, the TGI (UACC-62 melanoma) was 43.4 µM and the TGI (HL-60(TB) leukemia) was 9.02 µM. It also gave a TGI (SK-MEL-28 melanoma) of 52 µM, a TGI (UO-31 renal) of 93.1 µM and a TGI (COLO 205 colon) of 5.89 µM. The TGI (NCI-H23 lung) was 19.5 µM, the TGI (PC-3 prostate) was over 100 µM and the TGI (HS 578T breast) was 39.6 µM.
COc1nc2ncc([C@@H](O)[C@H](O)CO)nc2c(=O)n1C was tested, and the TGI (SK-OV-3 ovarian) was over 100 µM, the TGI (NCI-H460 lung) was over 100 µM and the TGI (OVCAR-8 ovarian) was over 100 µM. The TGI (BT-549 breast) was over 100 µM, the TGI (MOLT-4 leukemia) was over 100 µM and the TGI (LOX IMVI melanoma) was over 100 µM. It also gave a TGI (HCT-116 colon) of over 100 µM, a TGI (M14 melanoma) of over 100 µM and a TGI (SNB-75 CNS) of over 100 µM. For the same compound, the TGI (NCI-H226 lung) was over 100 µM, the TGI (MDA-MB-231 breast) was over 100 µM and the TGI (RPMI-8226 leukemia) was over 100 µM. It also gave a TGI (OVCAR-3 ovarian) of over 100 µM, a TGI (SF-539 CNS) of over 100 µM and a TGI (K-562 leukemia) of over 100 µM. The TGI (MCF7 breast) was over 100 µM, the TGI (HOP-92 NSCLC) was over 100 µM and the TGI (UACC-257 melanoma) was over 100 µM. The TGI (NCI-H522 lung) was over 100 µM, the TGI (SNB-19 CNS) was over 100 µM and the TGI (NCI/ADR-RES ovarian) was over 100 µM. It also gave a TGI (HCT-15 colon) of over 100 µM, a TGI (SW-620 colon) of over 100 µM and a TGI (CCRF-CEM leukemia) of over 100 µM. For the same compound, the TGI (HOP-62 NSCLC) was over 100 µM, the TGI (EKVX NSCLC) was over 100 µM and the TGI (HT29 colon) was over 100 µM. It also gave a TGI (RXF 393 renal) of over 100 µM, a TGI (U251 CNS) of over 100 µM and a TGI (T-47D breast) of over 100 µM. For the same compound, the TGI (SF-295 CNS) was over 100 µM, the TGI (MDA-N) was over 100 µM and the TGI (SN12C renal) was over 100 µM. It also gave a TGI (A549 NSCLC) of over 100 µM, a TGI (SR leukemia) of over 100 µM and a TGI (SK-MEL-5 melanoma) of over 100 µM. For the same compound, the TGI (KM12 colon) was over 100 µM, the TGI (IGROV1 ovarian) was over 100 µM and the TGI (A498 renal) was over 100 µM. It also gave a TGI (TK-10 renal) of over 100 µM, a TGI (ACHN renal) of over 100 µM and a TGI (SK-MEL-2 melanoma) of over 100 µM. The TGI (DU-145 prostate) was over 100 µM, the TGI (786-0 renal) was over 100 µM and the TGI (SF-268 CNS) was over 100 µM. For the same compound, the TGI (MDA-MB-435) was over 100 µM, the TGI (OVCAR-4 ovarian) was over 100 µM and the TGI (MALME-3M melanoma) was over 100 µM. The TGI (OVCAR-5 ovarian) was over 100 µM, the TGI (CAKI-1 renal) was over 100 µM and the TGI (UACC-62 melanoma) was over 100 µM. For the same compound, the TGI (HL-60(TB) leukemia) was over 100 µM, the TGI (SK-MEL-28 melanoma) was over 100 µM and the TGI (UO-31 renal) was over 100 µM. The TGI (COLO 205 colon) was over 100 µM, the TGI (PC-3 prostate) was over 100 µM and the TGI (HS 578T breast) was over 100 µM.
In the case of COc1ccc(N2CCOCC2)cc1, the TGI (SK-OV-3 ovarian) is reported as over 100 µM, the TGI (NCI-H460 lung) is reported as over 100 µM and the TGI (OVCAR-8 ovarian) is reported as over 100 µM. For the same compound, the TGI (BT-549 breast) was over 100 µM, the TGI (MOLT-4 leukemia) was over 100 µM and the TGI (HCT-116 colon) was over 100 µM. It also gave a TGI (M14 melanoma) of over 100 µM, a TGI (SNB-75 CNS) of over 100 µM and a TGI (NCI-H226 lung) of over 100 µM. The TGI (MDA-MB-231 breast) was over 100 µM, the TGI (RPMI-8226 leukemia) was over 100 µM and the TGI (OVCAR-3 ovarian) was over 100 µM. For the same compound, the TGI (SF-539 CNS) was over 100 µM, the TGI (K-562 leukemia) was over 100 µM and the TGI (MCF7 breast) was over 100 µM. It also gave a TGI (HOP-92 NSCLC) of over 100 µM, a TGI (UACC-257 melanoma) of over 100 µM and a TGI (NCI-H522 lung) of over 100 µM. The TGI (SNB-19 CNS) was over 100 µM, the TGI (NCI/ADR-RES ovarian) was over 100 µM and the TGI (HCT-15 colon) was over 100 µM. For the same compound, the TGI (SW-620 colon) was over 100 µM, the TGI (CCRF-CEM leukemia) was over 100 µM and the TGI (HOP-62 NSCLC) was over 100 µM. The TGI (EKVX NSCLC) was over 100 µM, the TGI (HT29 colon) was over 100 µM and the TGI (RXF 393 renal) was over 100 µM. For the same compound, the TGI (U251 CNS) was over 100 µM, the TGI (T-47D breast) was over 100 µM and the TGI (SF-295 CNS) was over 100 µM. For the same compound, the TGI (MDA-N) was over 100 µM, the TGI (SN12C renal) was over 100 µM and the TGI (A549 NSCLC) was over 100 µM. The TGI (SR leukemia) was over 100 µM, the TGI (SK-MEL-5 melanoma) was over 100 µM and the TGI (KM12 colon) was over 100 µM. The TGI (IGROV1 ovarian) was over 100 µM, the TGI (HCC-2998 colon) was over 100 µM and the TGI (A498 renal) was over 100 µM. For the same compound, the TGI (TK-10 renal) was over 100 µM, the TGI (ACHN renal) was over 100 µM and the TGI (SK-MEL-2 melanoma) was over 100 µM. The TGI (DU-145 prostate) was over 100 µM, the TGI (786-0 renal) was over 100 µM and the TGI (SF-268 CNS) was over 100 µM. For the same compound, the TGI (MDA-MB-435) was over 100 µM, the TGI (OVCAR-4 ovarian) was over 100 µM and the TGI (MALME-3M melanoma) was over 100 µM. For the same compound, the TGI (OVCAR-5 ovarian) was over 100 µM, the TGI (CAKI-1 renal) was over 100 µM and the TGI (UACC-62 melanoma) was over 100 µM. It also gave a TGI (HL-60(TB) leukemia) of over 100 µM, a TGI (SK-MEL-28 melanoma) of over 100 µM and a TGI (UO-31 renal) of over 100 µM. For the same compound, the TGI (COLO 205 colon) was over 100 µM, the TGI (NCI-H23 lung) was over 100 µM and the TGI (PC-3 prostate) was over 100 µM. For the same compound, the TGI (HS 578T breast) was over 100 µM.
